Source: US9376492B2, “Treatment of cancer” (Asclepiumm Limited, priority 2009, dated 2016)
“Also recorded” adds a separate entry of the source.

What was measured:
MDCK cells = experiment: Blocking EMT assay (HGF/SF-induced EMT); assay type: cell-based; conditions: 2.5 ng/ml HGF/SF, 24 h
Protocol: Blocking EMT Assay: Antibodies or peptides were added to 10% sub-confluent MDCK cells cultured in standard medium with 2.5 ng/ml HGF/SF in 96-well plates for 24 h. EMT was induced by HGF/SF in MDCK cells without any antibody or peptide treatment. The effects of different antibodies and peptides in blocking EMT were investigated by adding different concentrations of them to 10% sub-confluent MDCK cells cultured in standard medium with 2.5 ng/ml HGF/SF.

[1] = system: human breast cancer MCF7 cells; experiment: Cell invasion assay (Matrigel), MCF7; assay type: cell-based; conditions: human breast cancer MCF7 cells in Matrigel
Protocol: Cell Invasion Assay: Growth Factor-Reduced Matrigel™ Matrix (BD, Becton Dickinson Biosciences, Bedford, Mass., USA) was thawed in the fridge one day prior to its use. The Matrigel matrix was mixed by pre-cooled pipettes to homogeneity on ice. Four μl of the cell suspension (1×10^6 cells/ml) in standard medium without (Control) or with 1 μl different concentrations of antibody or peptide was mixed with 95 μl of Matrigel matrix in a cold Eppendorf tube. After thorough mixing using cooled pipettes, 30 μl of the cells in the Matrigel mixture was added to 48-well plates. The plates were incubated at 37° C. in a CO2 incubator for 1 h to polymerize the droplet mixtures. 250 μl of standard medium was added to cover the cell/Matrigel droplet and incubated for several days. Blindly-selected cell invasion images were recorded in four areas within a cell/Matrigel droplet by a Nikon 4500 Coolpix digital camera under the microscope.

EELSAAHTLV (listed as Homo sapiens) [Peptide 7]
inhibition of EMT (MDCK cells): significantly blocked; also recorded: significantly inhibited
inhibition of cell invasion ability [1]: significantly inhibited

KINATDADEPNTLNSKISYR (listed as Homo sapiens) [Peptide 4]
inhibition of EMT (MDCK cells): significantly blocked; also recorded: significantly inhibited
inhibition of cell invasion ability [1]: significantly inhibited
